Experimental data: ChEMBL document CHEMBL1148572, “1-((S)-2-aminopropyl)-1H-indazol-6-ol: a potent peripherally acting 5-HT2 receptor agonist with ocular hypotensive activity” (J Med Chem, 2006)

Tests used:
[1] = target: 5-hydroxytryptamine receptor 7 (Homo sapiens, UniProt P34969); assay: Activity at 5HT7 receptor expressed in human corneal epithelial CEPI-17-CL4 cells by adenylyl cyclase assay; type: functional, cell-based, Cornea
[2] = target: T1, 5-hydroxytryptamine receptor 2C (Homo sapiens, UniProt P28335); assay: biochemical
T1 sequence (P28335 whole entry): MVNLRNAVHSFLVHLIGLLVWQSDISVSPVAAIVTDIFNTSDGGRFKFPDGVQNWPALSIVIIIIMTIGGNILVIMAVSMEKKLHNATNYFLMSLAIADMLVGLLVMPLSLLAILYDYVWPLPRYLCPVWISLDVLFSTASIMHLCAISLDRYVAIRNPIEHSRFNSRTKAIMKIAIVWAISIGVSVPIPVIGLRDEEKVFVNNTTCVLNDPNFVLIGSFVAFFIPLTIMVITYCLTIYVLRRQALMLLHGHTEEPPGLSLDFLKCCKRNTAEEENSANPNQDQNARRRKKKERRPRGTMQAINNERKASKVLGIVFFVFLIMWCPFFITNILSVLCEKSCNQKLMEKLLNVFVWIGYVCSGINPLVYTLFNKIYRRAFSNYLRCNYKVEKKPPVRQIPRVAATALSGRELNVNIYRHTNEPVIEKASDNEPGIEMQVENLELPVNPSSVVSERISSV
Description: Displacement of [125I]DOI from cloned human 5HT2C receptor expressed in CHO cells

[3] = Inhibitory activity at site 2 of sodium channel at 1 nM
[4] = target: T2, Glutamate receptor ionotropic kainate (Homo sapiens) (UniProt P39086+Q16478+Q16099+Q13002+Q13003); assay: Inhibition of kainate receptor at 1 nM; type: protein-complex assay
[5] = target: T3, monoamine oxidase A (MAO-A) (Rattus norvegicus, UniProt P21396); assay: Inhibition of monoamine oxidase A in rat brain at 100 nM; type: tissue-based
T3 sequence (P21396 whole entry): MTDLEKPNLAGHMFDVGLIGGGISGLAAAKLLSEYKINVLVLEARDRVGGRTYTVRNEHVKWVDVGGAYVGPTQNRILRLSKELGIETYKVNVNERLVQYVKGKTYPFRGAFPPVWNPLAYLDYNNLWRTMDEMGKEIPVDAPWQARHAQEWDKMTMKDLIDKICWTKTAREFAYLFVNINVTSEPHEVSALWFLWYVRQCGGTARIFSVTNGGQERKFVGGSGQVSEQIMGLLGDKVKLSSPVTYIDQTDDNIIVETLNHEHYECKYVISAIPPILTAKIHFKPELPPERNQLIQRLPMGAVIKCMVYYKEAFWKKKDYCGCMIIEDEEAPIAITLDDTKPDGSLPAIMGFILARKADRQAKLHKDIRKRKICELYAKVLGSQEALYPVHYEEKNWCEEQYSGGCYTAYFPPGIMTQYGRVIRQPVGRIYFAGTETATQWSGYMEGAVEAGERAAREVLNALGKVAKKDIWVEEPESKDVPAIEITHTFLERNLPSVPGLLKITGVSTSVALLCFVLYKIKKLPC

[6] = target: Muscarinic acetylcholine receptor (Homo sapiens) (UniProt P20309+P08173+P11229+P08172+P08912); assay: Inhibition of non selective binding to muscarinic receptor at 1 nM; type: protein assay
[7] = target: T2, Glutamate receptor ionotropic kainate (Homo sapiens); assay: Inhibition of kainate receptor at 100 nM; type: protein-complex assay
[8] = target: Dopamine receptor (Homo sapiens) (UniProt P14416+P35462+P21918+P21917+P21728); assay: Inhibition of non selective binding to dopamine receptor at 100 nM; type: protein assay
[9] = target: 5-hydroxytryptamine receptor 2B (Homo sapiens, UniProt P41595); assay: biochemical
Description: Displacement of [125I]DOI from cloned human 5HT2B receptor expressed in CHO cells

[10] = target: 5-hydroxytryptamine receptor 1D (Homo sapiens, UniProt P28221); assay: Inhibitory activity against 5HT1D receptor
[11] = Inhibition of non selective binding to VIP at 1 nM
[12] = target: GABA-A receptor; benzodiazepine site (Homo sapiens) (UniProt P14867+P18507+P48169+Q99928+P34903+Q8N1C3+P47869+P31644+Q16445); assay: Inhibition of central benzodiazepine site on GABAA receptor at 100 nM; type: protein-complex assay
[13] = target: T4, 5-hydroxytryptamine receptor 1A (Homo sapiens, UniProt P08908); assay: Agonistic activity at cloned human 5HT1A receptor expressed in CHO cells by inhibition of forskolin-induced cAMP production; type: functional, cell-based
T4 sequence (P08908 whole entry): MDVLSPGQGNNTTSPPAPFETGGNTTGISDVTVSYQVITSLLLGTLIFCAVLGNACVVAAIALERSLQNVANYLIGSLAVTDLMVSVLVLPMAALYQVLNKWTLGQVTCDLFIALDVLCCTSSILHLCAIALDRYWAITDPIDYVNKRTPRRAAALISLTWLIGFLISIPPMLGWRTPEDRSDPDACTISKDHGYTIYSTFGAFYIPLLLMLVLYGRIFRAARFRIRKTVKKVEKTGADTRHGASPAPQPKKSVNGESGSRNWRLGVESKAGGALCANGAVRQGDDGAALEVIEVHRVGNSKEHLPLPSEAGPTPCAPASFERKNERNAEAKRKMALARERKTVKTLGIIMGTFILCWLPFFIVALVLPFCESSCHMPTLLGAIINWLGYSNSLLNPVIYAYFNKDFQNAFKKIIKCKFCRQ

[14] = target: Epidermal growth factor receptor (Homo sapiens) (UniProt P00533); assay: Inhibition of EGFR at 100 nM
[15] = target: T5, Type-1 angiotensin II receptor (Homo sapiens) (UniProt P30556); assay: Inhibition of type 1 angiotensin 2 receptor at 10 uM
T5 sequence (whole entry): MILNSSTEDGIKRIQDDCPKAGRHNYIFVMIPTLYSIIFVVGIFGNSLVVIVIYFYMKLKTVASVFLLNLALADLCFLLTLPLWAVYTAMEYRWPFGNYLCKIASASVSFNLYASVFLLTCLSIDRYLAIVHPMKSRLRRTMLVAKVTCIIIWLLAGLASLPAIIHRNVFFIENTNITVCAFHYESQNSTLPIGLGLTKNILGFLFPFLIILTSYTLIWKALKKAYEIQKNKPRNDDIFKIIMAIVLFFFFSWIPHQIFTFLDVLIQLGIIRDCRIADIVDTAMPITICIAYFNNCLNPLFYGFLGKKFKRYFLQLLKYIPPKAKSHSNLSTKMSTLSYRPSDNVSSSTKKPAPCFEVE

[16] = target: 5-hydroxytryptamine receptor 5A (Homo sapiens, UniProt P47898); assay: Inhibitory activity against 5HT5A receptor
5-hydroxytryptamine receptor 5A, sequence (P47898 whole entry): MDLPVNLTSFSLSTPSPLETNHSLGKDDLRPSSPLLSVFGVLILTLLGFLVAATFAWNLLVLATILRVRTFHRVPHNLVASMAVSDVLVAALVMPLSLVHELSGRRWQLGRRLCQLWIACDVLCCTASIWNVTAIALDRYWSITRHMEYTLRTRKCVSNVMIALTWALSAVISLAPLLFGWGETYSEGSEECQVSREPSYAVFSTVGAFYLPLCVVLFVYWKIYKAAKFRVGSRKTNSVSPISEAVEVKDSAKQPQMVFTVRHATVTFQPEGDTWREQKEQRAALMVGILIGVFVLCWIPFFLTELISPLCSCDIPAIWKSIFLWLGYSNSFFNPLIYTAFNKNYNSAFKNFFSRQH

5-hydroxytryptamine receptor 2B, sequence (P41595 whole entry): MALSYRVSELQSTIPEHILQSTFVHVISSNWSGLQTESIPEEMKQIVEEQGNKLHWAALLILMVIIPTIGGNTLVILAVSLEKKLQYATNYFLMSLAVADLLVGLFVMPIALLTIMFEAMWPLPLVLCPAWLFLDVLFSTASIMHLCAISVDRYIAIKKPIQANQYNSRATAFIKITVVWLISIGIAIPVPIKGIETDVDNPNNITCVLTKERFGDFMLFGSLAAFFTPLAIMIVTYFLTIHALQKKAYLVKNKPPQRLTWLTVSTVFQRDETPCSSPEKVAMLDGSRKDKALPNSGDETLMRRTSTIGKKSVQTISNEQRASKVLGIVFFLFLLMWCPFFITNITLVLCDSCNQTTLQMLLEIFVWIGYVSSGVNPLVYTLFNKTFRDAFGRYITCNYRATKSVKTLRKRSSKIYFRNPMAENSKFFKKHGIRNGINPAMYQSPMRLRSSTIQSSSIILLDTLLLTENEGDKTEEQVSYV
5-hydroxytryptamine receptor 7, sequence (P34969 whole entry): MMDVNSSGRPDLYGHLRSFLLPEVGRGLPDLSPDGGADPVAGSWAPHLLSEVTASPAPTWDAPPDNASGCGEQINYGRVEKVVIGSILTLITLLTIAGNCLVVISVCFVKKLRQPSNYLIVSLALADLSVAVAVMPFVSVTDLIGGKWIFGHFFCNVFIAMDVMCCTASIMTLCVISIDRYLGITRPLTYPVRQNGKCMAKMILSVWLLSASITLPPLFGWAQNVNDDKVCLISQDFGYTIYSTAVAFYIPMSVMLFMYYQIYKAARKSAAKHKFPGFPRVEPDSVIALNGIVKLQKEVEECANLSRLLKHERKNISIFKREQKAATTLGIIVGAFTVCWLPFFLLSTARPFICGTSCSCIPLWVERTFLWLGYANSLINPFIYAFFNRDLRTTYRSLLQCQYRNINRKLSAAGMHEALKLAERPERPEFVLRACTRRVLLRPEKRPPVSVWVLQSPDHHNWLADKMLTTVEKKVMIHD
5-hydroxytryptamine receptor 1D, sequence (P28221 whole entry): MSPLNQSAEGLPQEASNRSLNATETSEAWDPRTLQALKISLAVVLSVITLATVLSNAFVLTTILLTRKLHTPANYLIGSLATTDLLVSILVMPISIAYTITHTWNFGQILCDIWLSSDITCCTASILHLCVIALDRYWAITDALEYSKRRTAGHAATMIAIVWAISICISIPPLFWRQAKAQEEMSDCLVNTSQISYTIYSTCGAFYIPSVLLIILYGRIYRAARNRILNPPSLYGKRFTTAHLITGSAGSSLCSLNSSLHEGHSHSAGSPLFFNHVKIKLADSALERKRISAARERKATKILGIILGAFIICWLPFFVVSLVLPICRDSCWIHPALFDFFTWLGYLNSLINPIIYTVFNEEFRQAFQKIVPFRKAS
Epidermal growth factor receptor (Homo sapiens), sequence (P00533 whole entry): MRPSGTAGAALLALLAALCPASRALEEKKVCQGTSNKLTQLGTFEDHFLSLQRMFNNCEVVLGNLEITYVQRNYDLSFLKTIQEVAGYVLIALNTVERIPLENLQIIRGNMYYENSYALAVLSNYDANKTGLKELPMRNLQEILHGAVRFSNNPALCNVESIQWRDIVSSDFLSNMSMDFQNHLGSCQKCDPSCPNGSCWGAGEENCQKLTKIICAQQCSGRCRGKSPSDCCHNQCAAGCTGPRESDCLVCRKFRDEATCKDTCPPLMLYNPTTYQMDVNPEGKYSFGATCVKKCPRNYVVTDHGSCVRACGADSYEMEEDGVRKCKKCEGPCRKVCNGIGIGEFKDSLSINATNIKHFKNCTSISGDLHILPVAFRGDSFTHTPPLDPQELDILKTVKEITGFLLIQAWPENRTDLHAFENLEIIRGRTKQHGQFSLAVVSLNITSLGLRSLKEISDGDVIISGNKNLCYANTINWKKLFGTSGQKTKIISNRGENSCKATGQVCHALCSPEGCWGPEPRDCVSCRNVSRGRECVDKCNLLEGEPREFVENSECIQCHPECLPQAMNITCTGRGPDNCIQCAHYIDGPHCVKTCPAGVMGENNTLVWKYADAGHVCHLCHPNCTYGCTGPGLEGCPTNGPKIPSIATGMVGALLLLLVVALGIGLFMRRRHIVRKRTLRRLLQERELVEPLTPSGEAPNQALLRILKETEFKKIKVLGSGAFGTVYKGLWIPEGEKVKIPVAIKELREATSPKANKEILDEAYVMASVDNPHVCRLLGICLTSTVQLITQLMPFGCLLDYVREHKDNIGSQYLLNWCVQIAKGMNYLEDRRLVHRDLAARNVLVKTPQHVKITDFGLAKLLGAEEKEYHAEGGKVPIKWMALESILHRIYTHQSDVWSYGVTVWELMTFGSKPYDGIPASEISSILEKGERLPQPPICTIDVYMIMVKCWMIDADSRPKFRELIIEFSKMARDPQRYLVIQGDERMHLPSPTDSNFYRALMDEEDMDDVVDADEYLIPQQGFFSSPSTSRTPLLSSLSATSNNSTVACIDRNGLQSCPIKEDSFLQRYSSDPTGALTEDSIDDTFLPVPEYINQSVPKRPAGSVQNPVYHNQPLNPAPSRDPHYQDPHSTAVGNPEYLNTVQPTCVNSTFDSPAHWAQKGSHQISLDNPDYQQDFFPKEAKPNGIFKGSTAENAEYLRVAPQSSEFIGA

C[C@H](N)Cn1ncc2ccc(O)cc21
EC50 [1]: 5.6 µM | Ki [2]: 0.003 µM | inhibition [3]: 10.3% | inhibition [4]: 12% | inhibition at 0.1 µM [5]: -22.3% | inhibition [6]: -0.51% | inhibition [7]: 6.16% | inhibition [8]: 18.1% | Ki [9]: 0.0081 µM | Ki [10]: 7.87 µM | inhibition [11]: 5.87% | inhibition [12]: 18.8% | EC50 [13]: 1.46 µM | inhibition [14]: 1.86% | inhibition [15]: 6.55% | Ki [16]: > 10 µM
